What was measured:
ΔF508-CFTR [1] = molecular target: T1, ΔF508-CFTR (Homo sapiens, UniProt P13569, DEL508-508); assay: CFTR cell surface levels using HRP-tagged ΔF508-CFTR expressing CFBE cells, intrinsic corrector capacity; type: cell-based; details: for EC50: read-out: EC50
T1 construct: host or cells: CFBE41o-, doxycycline-inducible
In short: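 Here the cells express ΔF508-CFTR with horseradish peroxidase inserted in extracellular loop 4, so only rescued channel at the surface gives luminescent signal. Compounds act on their own, 20 h at the reduced temperature of 33 °C; values are percent activity relative to DMSO and a 3 μM corrector.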

ΔF508-CFTR [2] = molecular target: T1, ΔF508-CFTR; assay: CFTR cell surface levels using HRP-tagged ΔF508-CFTR expressing CFBE cells, in the presence of a co-corrector; type: cell-based; details: HRP-tagged ΔF508-CFTR expressing CFBE cells, in the presence of 3 μM co-corrector; for EC50: read-out: EC50
In short: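 Cells were seeded with 0.5 μg/mL doxycycline and held 68 h at 37 °C. Test compounds plus 3 μM co-corrector (final 0.1% DMSO) were then added for 20 h at 33 °C. Washed cells received HRP substrate, and luminescence was normalized between DMSO and 3 μM co-corrector controls.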

[3] = HRP-tagged ΔF508-CFTR CFBE41o- cells, compounds alone (intrinsic corrector capacity), 20 hours at 33° C., positive control 3 μM corrector
[4] = HRP-tagged ΔF508-CFTR CFBE41o- cells, compounds alone (intrinsic corrector capacity), 20 hours at 33° C.
[5] = HRP-tagged ΔF508-CFTR expressing CFBE cells, intrinsic corrector capacity (no co-corrector), 33° C., 20 hours
[6] = HRP-tagged ΔF508-CFTR CFBE cells, compound alone (intrinsic corrector capacity), 20 hours at 33° C.

T1 sequence (P13569 with tags, fused parts or gaps DEL508-508): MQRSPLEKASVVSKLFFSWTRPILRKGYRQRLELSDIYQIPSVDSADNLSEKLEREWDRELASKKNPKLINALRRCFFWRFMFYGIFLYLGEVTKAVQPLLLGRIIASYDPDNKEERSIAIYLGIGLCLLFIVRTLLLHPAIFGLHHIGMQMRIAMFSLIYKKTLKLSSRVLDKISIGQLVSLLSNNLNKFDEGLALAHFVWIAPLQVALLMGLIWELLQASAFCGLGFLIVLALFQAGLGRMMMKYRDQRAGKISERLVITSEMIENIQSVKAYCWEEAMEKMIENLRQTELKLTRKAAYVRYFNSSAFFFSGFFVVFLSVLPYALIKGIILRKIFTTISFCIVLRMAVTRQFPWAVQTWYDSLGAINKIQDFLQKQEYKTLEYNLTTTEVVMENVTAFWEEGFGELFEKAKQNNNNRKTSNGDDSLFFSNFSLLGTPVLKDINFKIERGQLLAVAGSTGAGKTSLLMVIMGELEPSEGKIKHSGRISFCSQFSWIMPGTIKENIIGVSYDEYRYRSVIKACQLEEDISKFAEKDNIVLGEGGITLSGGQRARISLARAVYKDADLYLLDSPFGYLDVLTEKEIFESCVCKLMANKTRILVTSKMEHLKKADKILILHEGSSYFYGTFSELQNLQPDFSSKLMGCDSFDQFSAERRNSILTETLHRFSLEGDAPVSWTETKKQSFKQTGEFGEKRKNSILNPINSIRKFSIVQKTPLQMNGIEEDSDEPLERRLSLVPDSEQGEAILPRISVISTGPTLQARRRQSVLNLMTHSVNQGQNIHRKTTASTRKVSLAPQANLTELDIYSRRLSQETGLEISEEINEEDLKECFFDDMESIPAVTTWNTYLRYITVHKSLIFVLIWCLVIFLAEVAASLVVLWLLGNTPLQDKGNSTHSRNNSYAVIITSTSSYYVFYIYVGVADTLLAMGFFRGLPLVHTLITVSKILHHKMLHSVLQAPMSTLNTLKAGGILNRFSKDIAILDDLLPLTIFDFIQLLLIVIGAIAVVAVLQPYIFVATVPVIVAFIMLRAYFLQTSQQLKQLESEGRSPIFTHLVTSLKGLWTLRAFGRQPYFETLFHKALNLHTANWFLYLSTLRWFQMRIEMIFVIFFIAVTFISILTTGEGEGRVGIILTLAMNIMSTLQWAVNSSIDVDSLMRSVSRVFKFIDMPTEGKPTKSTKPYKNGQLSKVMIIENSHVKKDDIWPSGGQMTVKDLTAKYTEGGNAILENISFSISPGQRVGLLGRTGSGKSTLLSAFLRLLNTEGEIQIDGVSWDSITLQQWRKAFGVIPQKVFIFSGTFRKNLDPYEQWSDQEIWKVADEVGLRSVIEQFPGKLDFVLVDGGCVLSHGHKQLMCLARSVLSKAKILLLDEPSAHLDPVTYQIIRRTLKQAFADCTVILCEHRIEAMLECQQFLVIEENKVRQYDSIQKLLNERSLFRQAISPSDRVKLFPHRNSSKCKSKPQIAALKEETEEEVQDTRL

Row | Structure (SMILES) | % Activation (ΔF508-CFTR [1]; [3]) | EC50 (ΔF508-CFTR [1]; [4]) | % Activation (ΔF508-CFTR [2]) | EC50 (ΔF508-CFTR [2]) | % Activation (ΔF508-CFTR [1]; [5]) | EC50 (ΔF508-CFTR [1]; [5]) | % Activation (ΔF508-CFTR [1]; [6]) | EC50 (ΔF508-CFTR [1]; [6])
1 | CC(C)c1nn(C2CCCCC2)c2nc(C(=O)O)cc(-c3ccc4c(c3)CNC4=O)c12 [compound 364, 1-cyclohexyl-4-(1-oxo-2,3-dihydro-1H-isoindol-5-yl)-3-(propan-2-yl)-1H-pyrazolo[3,4-b]pyridine-6-carboxylic acid] | 118.28% | 2280 nM | 282.3% | 1640 nM | – | – | – | –
2 | N#CC1CCCN(C2CCN(c3cc(C(=O)O)nc4c3c(C3CCC3)nn4-c3ccc(F)cc3)CC2)C1 (stereo not shown) [compound 871, 4-(3-cyano[1,4′-bipiperidin]-1′-yl)-3-cyclobutyl-1-(4-fluorophenyl)-1H-pyrazolo[3,4-b]pyridine-6-carboxylic acid] | – | – | 681.7% | 156 nM | 355.1% | 275 nM | – | –
3 | COCC(C)N1CCN(c2cc(C(=O)O)nc3c2c(C2CCC2)nn3-c2ccccc2)CC1 (stereo not shown) [compound 682, 3-cyclobutyl-4-[4-(1-methoxypropan-2-yl)piperazin-1-yl]-1-phenyl-1H-pyrazolo[3,4-b]pyridine-6-carboxylic acid] | – | – | 368.9% | 116 nM | 172.9% | 180 nM | – | –
4 | Cc1cccc(-n2nc(C(C)C)c3c(N4CCC5C(CCN5C(=O)OC(C)(C)C)C4)cc(C(=O)O)nc32)c1 (stereo not shown) [compound 234, 4-[1-(tert-butoxycarbonyl)octahydro-5H-pyrrolo[3,2-c]pyridin-5-yl]-1-(3-methylphenyl)-3-(propan-2-yl)-1H-pyrazolo[3,4-b]pyridine-6-carboxylic acid] | 292.97% | 464 nM | 510.27% | 368 nM | – | – | – | –
5 | O=C(O)c1cc(N2CCC(N3CCCCC3)CC2)c2c(C3CCC3)nn(-c3ccc(F)cc3)c2n1 [compound 693, 4-([1,4′-bipiperidin]-1′-yl)-3-cyclobutyl-1-(4-fluorophenyl)-1H-pyrazolo[3,4-b]pyridine-6-carboxylic acid] | – | – | 392.45% | 325 nM | 185.9% | 1270 nM | – | –
6 | Cc1cccc(-n2nc(C(C)C)c3c(N4CCC(S(C)(=O)=O)CC4)cc(C(=O)O)nc32)c1 [compound 257, 4-[4-(methanesulfonyl)piperidin-1-yl]-1-(3-methylphenyl)-3-(propan-2-yl)-1H-pyrazolo[3,4-b]pyridine-6-carboxylic acid] | 260.4% | 2530 nM | 440.2% | 788 nM | – | – | – | –
7 | COc1cccc(-n2nc(C3CCC3)c3c(N4CCC(N5CCOCC5)CC4)cc(C(=O)O)nc32)c1 [compound 822, 3-cyclobutyl-1-(3-methoxyphenyl)-4-[4-(morpholin-4-yl)piperidin-1-yl]-1H-pyrazolo[3,4-b]pyridine-6-carboxylic acid] | – | – | 472.75% | 1140 nM | 272.3% | 301 nM | – | –
8 | CN1CCC(C2CCN(c3cc(C(=O)O)nc4c3c(C3CCC3)nn4-c3ccccc3)CC2)CC1 [compound 454, 3-cyclobutyl-4-(1′-methyl[4,4′-bipiperidin]-1-yl)-1-phenyl-1H-pyrazolo[3,4-b]pyridine-6-carboxylic acid] | – | – | 470.3% | 636 nM | 253.5% | 998 nM | – | –
9 | O=C(O)c1cc(N2CCC(O)(CCO)CC2)c2c(C3CCC3)nn(-c3ccccc3)c2n1 [compound 546, 3-cyclobutyl-4-[4-hydroxy-4-(2-hydroxyethyl)piperidin-1-yl]-1-phenyl-1H-pyrazolo[3,4-b]pyridine-6-carboxylic acid] | – | – | 246.6% | 3330 nM | 87.52% | 3330 nM | – | –
10 | CC(C)c1nn(-c2ccc(F)cc2)c2nc(C(=O)O)cc(N3CCC(CC4CCCCC4)CC3)c12 [compound 780, 4-[4-(cyclohexylmethyl)piperidin-1-yl]-1-(4-fluorophenyl)-3-(propan-2-yl)-1H-pyrazolo[3,4-b]pyridine-6-carboxylic acid] | – | – | 429.5% | 124 nM | 233.5% | 249 nM | – | –
11 | CC(C)Oc1nn(C2CCCCC2)c2nc(C(=O)O)cc(-c3ccc(C(=O)N4CCN(C)CC4)cc3)c12 [compound 764, 1-cyclohexyl-4-[4-(4-methylpiperazine-1-carbonyl)phenyl]-3-[(propan-2-yl)oxy]-1H-pyrazolo[3,4-b]pyridine-6-carboxylic acid] | – | – | 255.65% | 2410 nM | 85.92% | 3330 nM | – | –
12 | CO[C@@H]1CCN(c2cc(C(=O)O)nc3c2c(C2CCC2)nn3-c2ccccc2)C1 [compound 522, 3-cyclobutyl-4-[(3R)-3-methoxypyrrolidin-1-yl]-1-phenyl-1H-pyrazolo[3,4-b]pyridine-6-carboxylic acid] | – | – | 294.1% | 1080 nM | 114% | 479 nM | – | –
13 | COCC1CN(C2CCN(c3cc(C(=O)O)nc4c3c(C3CCC3)nn4-c3ccc(F)cc3)CC2)CCO1 (stereo not shown) [compound 853, 3-cyclobutyl-1-(4-fluorophenyl)-4-{4-[2-(methoxymethyl)morpholin-4-yl]piperidin-1-yl}-1H-pyrazolo[3,4-b]pyridine-6-carboxylic acid] | – | – | 509.5% | 177 nM | 290.9% | 261 nM | – | –
14 | COCC1CN(CC2CCN(c3cc(C(=O)O)nc4c3c(C3CCC3)nn4-c3ccccc3)CC2)C1 [compound 831, 3-cyclobutyl-4-(4-{[3-(methoxymethyl)azetidin-1-yl]methyl}piperidin-1-yl)-1-phenyl-1H-pyrazolo[3,4-b]pyridine-6-carboxylic acid] | – | – | 402.5% | 407 nM | 231.3% | 1460 nM | – | –
15 | CC(C)c1nn(-c2cccc(N3CCOCC3)c2)c2nc(C(=O)O)cc(-c3ccc(N(C)C4CCOCC4)nc3)c12 [compound 187, 4-{6-[methyl(oxan-4-yl)amino]pyridin-3-yl}-1-[3-(morpholin-4-yl)phenyl]-3-(propan-2-yl)-1H-pyrazolo[3,4-b]pyridine-6-carboxylic acid] | 367.4% | 674 nM | 522% | 565 nM | – | – | – | –
16 | O=C(O)c1cc(N2CC3(CCCCC3)C2)c2c(C3CCC3)nn(-c3ccccc3)c2n1 [compound 409, 4-(2-azaspiro[3.5]nonan-2-yl)-3-cyclobutyl-1-phenyl-1H-pyrazolo[3,4-b]pyridine-6-carboxylic acid] | – | – | 249.3% | 1110 nM | 75.39% | 1070 nM | – | –
17 | CC(C)c1nn(-c2cccc(OC(F)(F)F)c2)c2nc(C(=O)O)cc(-c3ccc(N4CCOCC4)cc3)c12 [compound 269, 4-[4-(morpholin-4-yl)phenyl]-3-(propan-2-yl)-1-[3-(trifluoromethoxy)phenyl]-1H-pyrazolo[3,4-b]pyridine-6-carboxylic acid] | 264.3% | 581 nM | 452.33% | 391 nM | – | – | – | –
18 | COCCN1CCN(C2CCN(c3cc(C(=O)O)nc4c3c(C3CCC3)nn4-c3ccc(F)cc3)CC2)CC1 [compound 896, 3-cyclobutyl-1-(4-fluorophenyl)-4-{4-[4-(2-methoxyethyl)piperazin-1-yl]piperidin-1-yl}-1H-pyrazolo[3,4-b]pyridine-6-carboxylic acid] | – | – | 513.5% | 700 nM | 358.8% | 1630 nM | – | –
19 | O=C(O)c1cc(N2CCC(N3CCOCC3)CC2)c2c(C3CCC3)nn(-c3ccnc(C4CCOCC4)c3)c2n1 [compound 819, 3-cyclobutyl-4-[4-(morpholin-4-yl)piperidin-1-yl]-1-[2-(oxan-4-yl)pyridin-4-yl]-1H-pyrazolo[3,4-b]pyridine-6-carboxylic acid] | – | – | 313.1% | 3330 nM | 174.7% | 3330 nM | – | –
20 | O=C(O)c1cc(N2CCC(C(F)(F)F)C2)c2c(C3CCC3)nn(-c3ccccc3)c2n1 (stereo not shown) [compound 442, 3-cyclobutyl-1-phenyl-4-[3-(trifluoromethyl)pyrrolidin-1-yl]-1H-pyrazolo[3,4-b]pyridine-6-carboxylic acid] | – | – | 321.95% | 655 nM | 137.7% | 1080 nM | – | –
21 | COCCN(C)C1CCN(c2cc(C(=O)O)nc3c2c(C2CCC2)nn3-c2ccc(F)cc2)CC1 [compound 895, 3-cyclobutyl-1-(4-fluorophenyl)-4-{4-[(2-methoxyethyl)(methyl)amino]piperidin-1-yl}-1H-pyrazolo[3,4-b]pyridine-6-carboxylic acid] | – | – | 429.4% | 3330 nM | 178.2% | 1280 nM | – | –
22 | COC1CCN(C2CCN(c3cc(C(=O)O)nc4c3c(OC(C)C)nn4-c3ccc(F)cc3)CC2)CC1 [compound 926, 1-(4-fluorophenyl)-4-(4-methoxy[1,4′-bipiperidin]-1′-yl)-3-[(propan-2-yl)oxy]-1H-pyrazolo[3,4-b]pyridine-6-carboxylic acid] | – | – | 486.6% | 340 nM | – | – | 240.2% | 521 nM

From patent US9796711B2, “Substituted pyrazolo[3,4-b]pyridin-6-carboxylic acids and method of use” (AbbVie S.àr.l., priority 2015, dated 2017)
